The values that follow come from EP4122499A1, “FIBROBLAST ACTIVATION PROTEIN INHIBITORS AND USE THEREOF” (3B Pharmaceuticals GmbH, priority 2021, dated 2023).

The target of one assay is T1, Recombinant human DPP4 (Homo sapiens, UniProt P27487).
T1 construct: purchased R&D systems 9168-SE
Put plainly: DPP4 protease activity assay. In kind it is biochemical. To be noted: 20 µM GP-AMC substrate; read-out: pIC50 (DPP4) (converted). Here is the method: The PREP activity assay was performed using the FACS buffer (PBS including 1% FBS, Sigma-Aldrich, Cat# D8537). […] The DPP4 activity assay was performed in DPP assay buffer (25 mM Tris, pH 8.0).
Four parameter logistic (4PL) curve fitting and pIC50 calculations were performed using ActivityBase software.

Assay [1] addresses T2, Human recombinant FAP (Homo sapiens, UniProt Q12884).
T2 sequence (Q12884 1-760): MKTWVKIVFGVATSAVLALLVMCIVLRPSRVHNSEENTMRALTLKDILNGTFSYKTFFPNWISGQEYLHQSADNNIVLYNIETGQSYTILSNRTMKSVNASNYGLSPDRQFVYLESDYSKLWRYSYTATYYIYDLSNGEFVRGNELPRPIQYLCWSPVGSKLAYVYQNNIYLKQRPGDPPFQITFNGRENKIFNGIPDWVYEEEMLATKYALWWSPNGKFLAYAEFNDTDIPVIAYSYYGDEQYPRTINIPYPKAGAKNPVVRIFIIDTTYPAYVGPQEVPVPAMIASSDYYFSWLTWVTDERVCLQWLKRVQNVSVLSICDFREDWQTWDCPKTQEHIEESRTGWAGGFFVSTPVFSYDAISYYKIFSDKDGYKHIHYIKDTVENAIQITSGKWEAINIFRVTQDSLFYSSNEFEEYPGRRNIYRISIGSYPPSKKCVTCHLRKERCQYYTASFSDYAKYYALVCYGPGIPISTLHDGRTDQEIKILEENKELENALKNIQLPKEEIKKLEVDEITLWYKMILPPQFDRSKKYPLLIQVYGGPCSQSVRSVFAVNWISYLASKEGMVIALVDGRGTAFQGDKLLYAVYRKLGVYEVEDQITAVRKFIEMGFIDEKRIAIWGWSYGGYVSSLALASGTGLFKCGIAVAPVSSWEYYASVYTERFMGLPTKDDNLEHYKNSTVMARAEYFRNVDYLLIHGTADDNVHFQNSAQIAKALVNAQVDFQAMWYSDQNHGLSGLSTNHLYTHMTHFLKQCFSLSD
Put plainly: FRET-based FAP protease activity assay (human). In kind it is biochemical. Details: purchased R&D systems 3715-SE. Particulars: FRET-peptide substrate, 37°C; for IC50: read-out: pIC50 (Activity) (converted). As to the method:
(§1) In order to determine the inhibitory activity a FRET-based FAP protease activity assay was established.
25 µL of a 30 µM substrate solution, diluted in assay buffer, was added. […] Four parameter logistic (4PL) curve fitting and pIC50 calculations were performed using ActivityBase software (IDBS).

Assay [2] deals with T3, FAP-expressing human WI-38 fibroblasts (Homo sapiens, UniProt Q12884).
T3 construct: FAP-expressing human WI-38 fibroblasts (ECACC 90020107) were cultured in EMEM; host or cells: WI-38 human fibroblasts
T3 sequence (Q12884 1-760): T2 sequence (Q12884 1-760)
Put plainly: Competitive FACS binding assay (displacement of Cy5-labeled FAP inhibitor 3BP-2935). Particulars: 3 nM Cy5-labeled 3BP-2935, 4°C, 1 hour. As to the method:
In order to determine binding of compounds according to the present invention to FAP-expressing cells, a competitive FACS binding assay was established.
Cells were diluted in FACS buffer to a final concentration of 100.000 cells per ml and 200 µl of the cell suspension are transferred to a u-shaped non-binding 96-well plate (Greiner).
Cell were washed twice with FACS buffer (see above) and resuspended in 200 µl FACS buffer. Cells were analyzed in an Attune NxT flow cytometer (Thermo Fisher Scientific). Median fluorescence intensities (Cy5 channel) was calculated by Attune NxT software and plotted against test compound concentrations. Four parameter logistic (4PL) curve fitting and pIC50 calculations were performed using ActivityBase software.

In assay [3] the target is T2, Human recombinant FAP. Description: Surface plasmon resonance assay (Biacore T200, single cycle kinetics). It counts as binding. Particulars: SPR, 25°C; for HL [min] (Biacore): half-life; for Kd / pKD (Biacore): 1:1 Langmuir binding model; for Kd: read-out: pKD (Biacore) (converted). As to the method: Surface plasmon resonance studies were performed using a Biacore™ T200 SPR system (Cytiva, formerly GE Healthcare). Briefly, polarized light is directed towards a gold-labeled sensor surface, and minimum intensity reflected light is detected. The angle of reflected light changes as molecules bind and dissociate. […] Test compounds are contacted with the loaded surface, and a real-time interaction profile with the FAP ligand is recorded in a sensorgram. In real-time, the association and dissociation of a binding interaction is measured, enabling calculation of association and dissociation rate constants and the corresponding affinity constants. Importantly, a background response is generated due to the difference in the refractive indices of the running and sample buffers, as well as unspecific binding of the test compounds to the flow cell surface. This background is measured and subtracted by running the sample on a control flow cell coated with the same density of capture antibody in the absence of immobilized FAP. Furthermore, baseline drift correction of the binding data is performed, which is caused by slow dissociation of the captured FAP from the immobilized antibody. This drift is measured by injecting running buffer through a flow cell with the antibody and FAP immobilized to the sensor surface.
Biacore™ CM5 sensor chips were used. […] A 150 µL aliquot was transferred into plastic vials and placed into the sample rack of the Biacore™ T200 instrument. Amine Coupling Kit Reagent solutions were transferred into plastic vials and placed into the sample rack: 90 µL of 0.4 M 1-ethyl-3-(3-dimethylaminopropyl)carbodiimide (EDC), and 90 µL of 0.1 M N-hydroxysuccinimide (NHS). A 130 µL aliquot of 1 M ethanolamine-HCl, pH 8.5, was transferred into plastic vials and placed into the sample rack. The Biacore™ liquid system was set-up as follows: Separate bottles containing distilled water (1 L), Running Buffer (500 mL), as well as an empty bottle for waste were placed onto the buffer tray. A preinstalled program for immobilization was used, with an immobilization level of 7000 RU. Immobilization was performed at 25°C. The immobilization procedure of anti-FAP antibodies was performed, as described in the Table 5. Table 5: Immobilization protocol for anti-FAP antibodies used on the CM5 sensor chip.
Human recombinant FAP was diluted in Running Buffer to a final concentration of 20 µg/mL. A 100 µL aliquot of human FAP-Working-Solution was transferred into plastic vials and placed into a sample rack. A 0.5 mM Compound-Stock-Solution was prepared by dissolving each compound in DMSO. For each test compound, Compound-Stock-Solutions were diluted in Running Buffer (HBST) at 500 nM and further diluted with HBST-DMSO Buffer (0.1% DMSO). SPR binding analyses for binary complexes were performed in SCK mode at 25°C. Following three SCK measurements, a baseline drift was assessed by injecting running buffer through a flow cell, with the antibody and FAP immobilized to the sensor surface. Table 6: Protocol for assessing the binding kinetics.
For each test compound, SPR raw data in the form of resonance units (RU) were plotted as sensorgrams using the Biacore™ T200 control software. The signal from the blank sensorgram was subtracted from that of the test compound sensorgram (blank corrected). The blank corrected sensorgram was corrected for baseline drift by subtracting the sensorgram of a SCK run without the test compound (running buffer only). The association rate (kon), dissociation rate (koff), dissociation constant (KD), and t1/2 were calculated from Blank-normalized SPR data using the 1:1 Langmuir binding model from the Biacore™ T200 evaluation software. Raw data and fit results were imported as text files in IDBS. The pKD value (negative decadic logarithm of dissociation constant) was calculated in the IDBS excel template.

A further assay deals with T4, Recombinant mouse FAP (Mus musculus, UniProt P97321).
T4 construct: purchased R&D systems 8647-SE
T4 sequence (P97321 1-761): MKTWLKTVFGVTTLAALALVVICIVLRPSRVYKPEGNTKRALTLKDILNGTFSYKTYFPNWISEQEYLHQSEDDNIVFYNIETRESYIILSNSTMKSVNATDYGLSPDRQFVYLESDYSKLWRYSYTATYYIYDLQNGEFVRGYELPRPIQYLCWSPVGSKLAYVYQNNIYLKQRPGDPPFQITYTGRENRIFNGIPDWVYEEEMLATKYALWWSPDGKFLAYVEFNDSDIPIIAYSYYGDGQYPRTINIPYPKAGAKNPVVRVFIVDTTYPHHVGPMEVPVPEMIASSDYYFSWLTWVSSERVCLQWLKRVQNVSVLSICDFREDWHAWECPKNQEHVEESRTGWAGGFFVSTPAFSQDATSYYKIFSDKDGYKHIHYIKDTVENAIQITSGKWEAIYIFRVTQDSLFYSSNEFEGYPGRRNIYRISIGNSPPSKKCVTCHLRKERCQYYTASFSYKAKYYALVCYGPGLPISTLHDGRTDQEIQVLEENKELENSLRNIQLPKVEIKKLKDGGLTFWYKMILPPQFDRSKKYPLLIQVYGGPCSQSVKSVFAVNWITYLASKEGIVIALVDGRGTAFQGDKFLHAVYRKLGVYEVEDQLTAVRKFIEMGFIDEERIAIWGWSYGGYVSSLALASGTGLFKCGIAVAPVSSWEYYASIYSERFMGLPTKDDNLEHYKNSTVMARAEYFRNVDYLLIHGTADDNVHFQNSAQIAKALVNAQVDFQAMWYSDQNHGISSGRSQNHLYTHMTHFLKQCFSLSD
Put plainly: FRET-based FAP protease activity assay (mouse). To be noted: FRET-peptide substrate, 37°C. In kind it is biochemical. Here is the method:
as §1
25 µL of a 30 µM substrate solution, diluted in assay buffer, was added. […] Four parameter logistic (4PL) curve fitting and pIC50 calculations were performed using ActivityBase software.

T1 sequence (P27487 whole entry): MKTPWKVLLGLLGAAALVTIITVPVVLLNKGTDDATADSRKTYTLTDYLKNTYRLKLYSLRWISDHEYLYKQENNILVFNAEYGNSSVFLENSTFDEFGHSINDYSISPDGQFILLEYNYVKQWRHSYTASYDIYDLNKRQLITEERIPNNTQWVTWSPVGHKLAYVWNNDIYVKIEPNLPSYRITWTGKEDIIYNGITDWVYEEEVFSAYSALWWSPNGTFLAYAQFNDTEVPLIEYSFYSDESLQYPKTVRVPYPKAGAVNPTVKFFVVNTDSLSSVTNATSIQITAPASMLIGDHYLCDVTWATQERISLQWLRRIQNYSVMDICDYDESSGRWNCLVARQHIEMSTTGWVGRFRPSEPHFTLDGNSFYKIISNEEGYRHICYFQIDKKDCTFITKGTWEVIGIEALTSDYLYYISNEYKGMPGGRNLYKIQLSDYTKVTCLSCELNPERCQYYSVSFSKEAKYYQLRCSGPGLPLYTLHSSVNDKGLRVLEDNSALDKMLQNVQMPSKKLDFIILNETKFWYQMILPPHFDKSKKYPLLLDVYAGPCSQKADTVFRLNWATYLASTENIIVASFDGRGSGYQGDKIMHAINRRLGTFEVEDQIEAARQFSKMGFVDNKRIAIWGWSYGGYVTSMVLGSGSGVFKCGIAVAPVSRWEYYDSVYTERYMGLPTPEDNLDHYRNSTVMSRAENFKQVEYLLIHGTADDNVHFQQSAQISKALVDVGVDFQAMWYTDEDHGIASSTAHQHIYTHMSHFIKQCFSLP

Consider `N#C[C@@H]1CCCN1C(=O)CNC(=O)c1ccnc2ccccc12`, for which the IC50 on Recombinant human DPP4 was over 1000 nM.
For the compound `Cn1ncnc1C(=O)[C@@H]1CCCN1C(=O)CNC(=O)c1ccnc2ccccc12`, the values for the IC50 (at Human recombinant FAP [1]; in assay [2]) were 316 nM and over 1000 nM, respectively.
In the case of `N#C[C@@H]1CC(F)(F)CN1C(=O)CNC(=O)c1ccnc2ccccc12`, the “HL [min] (Biacore)” value on Human recombinant FAP [3] was found to be 10.4 min.
Take `N#C[C@@H]1CCCN1C(=O)CNC(=O)c1ccnc2ccc(-c3ccc(C(=O)O)cc3)cc12`: the IC50 was 1.58 nM on Human recombinant FAP [1], 2.51 nM in assay [2] and over 1000 nM on Recombinant human DPP4. Also, the Kd on Human recombinant FAP [3] was 0.2 nM. Moreover, on Human recombinant FAP [3], the “HL [min] (Biacore)” value is on record as 11 min.
In the case of `CC(C)(C)OC(=O)N1CC[N+]([O-])(CCCOc2ccc3nccc(C(=O)NCC(=O)N4CC(F)(F)C[C@H]4C#N)c3c2)CC1`, the results for the IC50 (at Human recombinant FAP [1]; in assay [2]) were 1 nM and 2.51 nM, respectively.
Taken in the same sequence, the figures for `CC(C)(C)OC(=O)N1CC[N+]([O-])(CCCOc2ccc3c(c2)c(C(=O)NCC(=O)N2CC(F)(F)C[C@H]2C#N)cc[n+]3[O-])CC1` were 2.51 nM and 10 nM.
Taken in the same sequence, the figures for `CC(C)(C)OC(=O)N1CCN(CCCOc2ccc3c(c2)c(C(=O)NCC(=O)N2CC(F)(F)C[C@H]2C#N)cc[n+]3[O-])CC1` were 2.51 nM and 10 nM.
The corresponding values for `CC(C)(C)OC(=O)N1CCN(CCCOc2ccc3nccc(C(=O)NCC(=O)N4CC(F)(F)C[C@H]4C#N)c3c2)CC1` are 1.58 nM and 3.98 nM.
In the case of `N#C[C@@H]1CCCN1C(=O)CNC(=O)c1ccnc2ccc(-n3cc(C(=O)NCCCNC(=O)CN4CCN(CC(=O)O)CCN(CC(=O)O)CCN(CC(=O)O)CC4)nn3)cc12`, the “HL [min] (Biacore)” value at Human recombinant FAP [3] turned out to be 95 min.
For the compound `N#C[C@@H]1CC(F)(F)CN1C(=O)CNC(=O)c1ccnc2ccc(-c3ccc(C(=O)NCCN4CCN(C(=O)CN5CCN(CC(=O)O)CCN(CC(=O)O)CCN(CC(=O)O)CC5)CC4)nc3)cc12`, at Human recombinant FAP [3], the “pKD (Biacore)” value is over 11 and the “HL [min] (Biacore)” value is over 500 min.
As for `O=C(NCC(=O)N1CCC[C@H]1B(O)O)c1ccnc2ccccc12`, the IC50 was 1.26 nM at Human recombinant FAP [1] and 3.16 nM in assay [2].
On to `CS(=O)(=O)c1ccc(-c2ccc3nccc(C(=O)NCC(=O)N4CC(F)(F)C[C@H]4C#N)c3c2)c(CO)c1`, for which the IC50 on Human recombinant FAP [1] is 0.501 nM. Moreover, the IC50 in assay [2] is 2 nM. For the same compound, at Human recombinant FAP [3], the Kd is under 0.01 nM and the “HL [min] (Biacore)” value is over 500 min.
Consider `COc1cccc2c(C(=O)NCC(=O)N3CC(F)(F)C[C@H]3C#N)ccnc12`, for which the IC50 on Human recombinant FAP [1] was 6.31 nM; in assay [2] it was 20 nM.
The corresponding values for `Cc1cccc2c(C(=O)NCC(=O)N3CC(F)(F)C[C@H]3C#N)ccnc12` are 12.6 nM and 25.1 nM.
The corresponding values for `CCOc1cccc2c(C(=O)NCC(=O)N3CC(F)(F)C[C@H]3C#N)ccnc12` are 3.16 nM and 20 nM.
For `N#C[C@@H]1CC(F)(F)CN1C(=O)CNC(=O)c1ccnc2c(OCC3CC3)cccc12`, the IC50 on Human recombinant FAP [1] was 3.16 nM; in assay [2], 15.8 nM.
As to `O=C(NCC(=O)N1CCC[C@H]1C(=O)CO)c1ccnc2ccccc12`, the “pIC50 (mouseFAP)” value on Recombinant mouse FAP stood at 8.2. In addition, the “HL [min] (Biacore)” value on Human recombinant FAP [3] came to 3.1 min.
As for `N#C[C@@H]1CC(F)(F)CN1C(=O)CNC(=O)c1ccnc2c(OCCCCc3ccccc3)cccc12`, at Human recombinant FAP [1], the “pIC50 (Activity)” value came out at 8.2. In addition, in assay [2], the “pIC50 (FACS)” value amounted to 7.7.
As for `O=C(O)CN1CCN(CC(=O)O)CCN(CC(=O)NCCCS(=O)(=O)c2ccc(-c3ccc4nccc(C(=O)NCC(=O)N5CCC[C@H]5C(=O)c5nc6ccccc6o5)c4c3)cc2)CCN(CC(=O)O)CC1` [drawing 317], the “pIC50 (mouseFAP)” value at Recombinant mouse FAP came out at 8.6. Also, at Human recombinant FAP [3], the “pKD (Biacore)” value was over 11 and the “HL [min] (Biacore)” value is recorded as over 500 min.
